Assay results published in patent US20220372585A1, “Sensors for Aromatic Compounds and Methods of Making and Using Same” (Washington University, priority 2021, published 2022).
Positions count from the first letter of the chain named. Values joined by “and” are separate entries in the source; they are usually repeats but may differ in a detail not shown here. Equal values may be shown once. “Also recorded” adds a separate entry of the source.

How the values were obtained:
[1] = test system: TynA-FeaR sensors (best performing variants); experiment: TynA-FeaR sensor activity and specificity in richer media, amines and carboxylic acids; format: cell-based, E. coli; conditions: 1 mM, 24 h; minimal medium with casamino acids and LB medium; FIG. 29
Source text: FIG. 29A-FIG. 29B. TynA-FeaR sensor activity and specificity in richer media, related to FIG. 6A-FIG. 6E. […] PtynA was regulated by the specified variants of TynA and FeaR. The response of the G494S TynA mutant sensors was not determined (ND) for DOPAC, PAA, HPAA, or IAA. Values and error bars are the average and standard deviation of biological triplicate, respectively.
To further confirm the specificity of the best performing sensors, the response of each to the four amines and the four respective carboxylic acids, 3,4-dihydroxyphenylacetic acid (DOPAC), phenylacetic acid (PAA), 4-hydroxyphenylacetic acid (HPAA), and indole-3-acetic acid (IAA) was tested in minimal medium with casamino acids and LB medium (see e.g., FIG. 29A-FIG. 29B). […] All mutant sensors remained specific to PEA or Tyra in minimal medium with casamino acids.
(§1) Flow cytometry was performed as previously described. […] Cytometry data was gated by forward and side scatter.

TrpR variant O1 = target: T1, TrpR variant O1 (Escherichia coli, UniProt P0A881, A80R/G78N/I79W/K72S/T83K); experiment: TrpR O1 variant with synthetic Ptrp promoter, repression of GFP expression; format: cell-based, E. coli
T1 construct: trpR (O1); expressed in transfected cells; host or cells: E. coli Nissle 1917 (EcN), genomic trpR knocked out; plasmid pMBA173 (P17-trpR(O1))
Source text: (§2) Among the various aspects of the present disclosure is the provision of systems and methods for detecting aromatic compounds. An aspect of the present disclosure provides for a method of protein engineering (e.g., a regulator protein) comprising: mutagenizing specific amino acids in and around a ligand-binding site of a protein, wherein the mutagenizing enables changes in ligand-protein binding specificity while maintaining protein-DNA interaction and thus downstream gene expression control; and/or linking ligand-protein binding to output response. An aspect of the present disclosure provides for an engineered molecular sensor. […] In some embodiments, the engineered regulator protein or the ligand-protein binding site or a sequence encoding the engineered regulator protein or the ligand-protein binding site of the engineered regulator protein is at least about 80% identical to a WT regulator protein or a WT regulator ligand-protein binding site; or a sequence encoding the engineered regulator protein or ligand binding site thereof is at least about 80% identical to a sequence encoding the WT regulator protein or the WT regulator ligand-protein binding site; or functional fragment thereof, the engineered regulator protein having ligand binding activity. […]

WT TrpR = target: T2, WT TrpR (Escherichia coli, UniProt P0A881); experiment: WT TrpR system, repression of GFP expression; format: cell-based, E. coli
T2 construct: trpR (WT); expressed in transfected cells; host or cells: E. coli Nissle 1917 (EcN), genomic trpR knocked out; plasmid pMBA035 (P17-trpR)
Source text: Among the various aspects of the present disclosure is the provision of systems and methods for detecting aromatic compounds. An aspect of the present disclosure provides for a method of protein engineering (e.g., a regulator protein) comprising: mutagenizing specific amino acids in and around a ligand-binding site of a protein, wherein the mutagenizing enables changes in ligand-protein binding specificity while maintaining protein-DNA interaction and thus downstream gene expression control; and/or linking ligand-protein binding to output response. An aspect of the present disclosure provides for an engineered molecular sensor. […] In some embodiments, the engineered regulator protein or the ligand-protein binding site or a sequence encoding the engineered regulator protein or the ligand-protein binding site of the engineered regulator protein is at least about 80% identical to a WT regulator protein or a WT regulator ligand-protein binding site; or a sequence encoding the engineered regulator protein or ligand binding site thereof is at least about 80% identical to a sequence encoding the WT regulator protein or the WT regulator ligand-protein binding site; or functional fragment thereof, the engineered regulator protein having ligand binding activity. In some embodiments, the engineered molecular sensor is optionally genomically integrated into a microorganism, optionally selected from a probiotic or is a purified cell-free sensor. In some embodiments, the engineered regulator protein or enzyme is an engineered TrpR, TyrR, TynA, or FeaR protein. […] In some embodiments, the engineered regulator protein is an engineered TrpR and is a tryptophan (Trp)-, 5-hydroxytryptophan (5-HTP)-, or tryptamine (Trpta)-specific sensor. In some embodiments, the engineered regulator protein or enzyme is an engineered TrpR, TyrR, TynA, or FeaR, and/or wherein the engineered TrpR, TyrR, TynA, or FeaR comprises at least one mutation to a ligand-protein binding site having specific amino acid binding activity. […]

TrpR variant OD = target: T3, TrpR variant OD (Escherichia coli, UniProt P0A881, A80L/G78C/I79C/K72S/T83R); experiment: TrpR OD variant with synthetic Ptrp promoter, repression of GFP expression; format: cell-based, E. coli
T3 construct: trpR (OD); expressed in transfected cells; host or cells: E. coli Nissle 1917 (EcN), genomic trpR knocked out; plasmid pMBA103 (P17-trpR(OD))
Source text: as §2

[2] = test system: G494S TynA with A81T FeaR; format: cell-based, E. coli MG1655; conditions: G494S*; 24 h; FIG. 4C
Method: as §1

[3] = test system: wild-type TynA and A81L FeaR; experiment: microbe, parasite or virus in culture; format: cell-based, E. coli MG1655; conditions: A81L FeaR; 24 h; FIG. 5C
Method: as §1

E274Q+D103S TyrR = target: T4, E274Q+D103S TyrR (Escherichia coli, UniProt P07604, D103S/E274Q); experiment: cell-based; format: cell-based, E. coli; conditions: ligand alone, listed as Tyr
T4 construct: expressed in transfected cells; host or cells: E. coli Nissle 1917 (EcN), plasmid pAGR159
T4 sequence (P07604 whole entry D103S/E274Q): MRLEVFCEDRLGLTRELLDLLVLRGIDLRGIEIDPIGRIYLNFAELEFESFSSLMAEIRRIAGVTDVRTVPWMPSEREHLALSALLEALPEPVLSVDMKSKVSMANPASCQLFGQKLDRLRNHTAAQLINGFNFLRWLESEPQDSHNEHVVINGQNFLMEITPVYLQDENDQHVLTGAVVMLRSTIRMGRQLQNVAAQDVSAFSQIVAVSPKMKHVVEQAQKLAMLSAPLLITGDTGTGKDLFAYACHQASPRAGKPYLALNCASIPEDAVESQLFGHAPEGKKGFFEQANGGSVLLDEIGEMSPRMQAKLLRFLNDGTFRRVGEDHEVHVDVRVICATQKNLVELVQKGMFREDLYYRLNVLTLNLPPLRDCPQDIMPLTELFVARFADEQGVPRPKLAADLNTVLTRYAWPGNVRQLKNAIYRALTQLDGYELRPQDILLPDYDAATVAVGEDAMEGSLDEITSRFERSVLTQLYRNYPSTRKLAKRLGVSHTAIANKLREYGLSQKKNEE
Method: (§3) Everything but (Eb) medium was prepared by supplementing M9 minimal medium with 1 mM MgSO4, […]), 0.4% w/v glucose, and all non-aromatic amino acids (0.8 mM alanine, 5 mM arginine, 0.4 mM asparagine, 0.4 mM aspartate, 0.1 mM cysteine, 0.6 mM glutamate, 0.6 mM glutamine, 0.8 mM glycine, 0.2 mM histidine, 0.4 mM isoleucine, 0.8 mM leucine, 0.4 mM lysine, 0.2 mM methionine, 0.4 mM proline, 10 mM serine, 0.4 mM threonine, and 0.6 mM valine). […] Experimental cultures were prepared by diluting overnight cultures 200× into 0.6 mL fresh Eb medium supplemented with the respective ligands (Phe and Tyr) in 2 mL 96-deep well plates (Eppendorf, Hamburg, Germany). Cultures were grown for 8 h at 37° C. and 250 rpm before sampled for fluorimetry or flow cytometry analysis. All medium was supplemented with the relevant antibiotics for plasmid maintenance ([…]).
(§4) […] culture samples were collected and transferred to 96-well assay microplates (clear, flat bottom black, Greiner Bio-One). The fluorescence and culture absorbance (Abs) were measured using a Tecan microplate reader (Infinite M200 Pro) as previously described. The fluorescence of GFP was measured with an excitation at 483 nm and emission at 530 nm. The Abs of the samples was measured at 600 nm. The measured fluorescence was normalized by dividing by the Abs and subtracting the same ratio obtained from non-fluorescent wild-type cells (Equation 1).
as §1

R10F TyrR = target: T5, R10F TyrR (Escherichia coli, UniProt P07604, R10F); experiment: cell-based; format: cell-based, E. coli
T5 construct: expressed in transfected cells; host or cells: E. coli Nissle 1917 (EcN), plasmid pAGR473
T5 sequence (P07604 whole entry R10F): as the sequence (P07604 whole entry D103S/E274Q) above, with R10F, S103D, Q274E counted along it
Method: as §3, §4, §1

wild-type TyrR = target: T6, wild-type TyrR (Escherichia coli, UniProt P07604); experiment: cell-based; format: cell-based, E. coli
T6 construct: tyrR (WT); expressed in transfected cells; host or cells: E. coli Nissle 1917 (EcN)
T6 sequence (P07604 whole entry): as the sequence (P07604 whole entry D103S/E274Q) above, with S103D, Q274E counted along it
Method: as §3, §4, §1

E274Q+T14V TyrR = target: T7, E274Q+T14V TyrR (Escherichia coli, UniProt P07604, E274Q/T14V); experiment: cell-based; format: cell-based, E. coli; conditions: ligand alone, listed as Tyr
T7 construct: expressed in transfected cells; host or cells: E. coli Nissle 1917 (EcN), plasmid pAGR157
T7 sequence (P07604 whole entry T14V/E274Q): as the sequence (P07604 whole entry D103S/E274Q) above, with T14V, S103D counted along it
Method: as §3, §4, §1

PtynA = experiment: Ligand specificity of 20 FeaR variants at the 81st position with wild-type TynA, fluorescence from PtynA; format: cell-based, E. coli; conditions: 0.25 mM DA, PEA, Tyra, Trypta, 24 h
Source text: FIG. 5A-FIG. 5D. Engineering FeaR to identify improved phenylethylamine-specific sensors (A) Computationally predicted ligand-binding region of FeaR. Key residues are shown with (magenta) and without (green) phenylethylamine-aldehyde (PEA-aldehyde; cyan) complexed. The structure was predicted using the Robetta web server. Ligand docking was modeled using the Rosetta Ligand Docking Server hosted by ROSIE. The image was generated using PyMOL. […] PtynA was regulated by wild-type TynA and 20 different FeaR variants with the specified amino acid in the 81st position. Residues for each group are listed from left to right in order of increasing size. Non-zero values and error bars are the average and standard deviation of biological triplicate, respectively. Variants with significant expression in response to PEA were determined by unpaired t tests (p<0.05). (C) Transfer curve of PtynA after 24 h of induction with DA, PEA, Tyra, and Trypta. PtynA was regulated by wild-type TynA and the A81L FeaR mutant. Points represent experimental data while the line represents the fitted curve (see e.g., TABLE 2). […] Values and error bars are the average and standard deviation of biological triplicate, respectively. (D) Reorganization of […] with respect to the size and hydropathy index of the 81st residue (see e.g., TABLE 3). The blue area represents characteristic values that permit binding of Tyra. See also FIG. 20-FIG. 25.
Noting the PEA selectivity given by the A81T mutation and the smallest size of the PEA-aldehyde (no OH group), followed by that of Tyra—(1 OH), DA—(2 OHs), and Trypta—(additional 5-membered ring) aldehyde (see e.g., FIG. 3A), it was hypothesized that small residues, including alanine as in wild-type FeaR, would cause ligand promiscuity, with ligand size-dependent response as shown in FIG. 3D. Slightly larger residues such as threonine would have improved selectivity toward the smallest PEA-aldehyde, but much larger or charged residues may fully eliminate ligand binding. It was also hypothesized that the hydropathy index of the 81st residue may also play a role in the sensor's performance due to differences in ligand polarities caused by the different number of hydroxyl groups. […] To test this prediction, A81 was mutated and each mutant was paired with the promiscuous wild-type TynA (see e.g., FIG. 5B). Consistent with the predictions, A81L, A81P, A81 I, and A81N were identified as PEA-specific variants, with 580-fold induction for the A81L sensor (see e.g., FIG. 5C). […] As predicted a clear pattern between the identity of residue 81 and ligand selectivity was observed (see e.g., FIG. 5D, TABLE 3).
as §1

[4] = pAGR473, FIG. 2G, 8 h, repressible
[5] = wild-type TyrR, pAGR010, FIG. 1C, 8 h

`O=C(O)Cc1ccc(O)cc1` [HPAA, 4-hydroxyphenylacetic acid] was tested, and the “response of the sensors” value [1] was “No sensors significantly responded”.

`N[C@@H](Cc1c[nH]c2ccccc12)C(=O)O` [Trp, tryptophan] was tested, and the fold repression (TrpR variant O1) was “about 60 fold”, the “fold repression of GFP expression” value (WT TrpR) was 120 fold and the fold repression (TrpR variant OD) was “about 5 fold”.

For `O=C(O)Cc1ccccc1` [PAA, phenylacetic acid], the “response of the sensors” value [1] was “No sensors significantly responded”.

`N[C@@H](Cc1ccc(O)cc1)C(=O)O` [Tyrosine, tyrosine] was tested, and the response [2] was “lack of response”, the response [3] was “lack of response” and the “response of PtyrP” value (E274Q+D103S TyrR) was “lack of response; also recorded: no apparent response”. The EC50 (R10F TyrR; KA (half maximal constant), pAGR473, FIG. 2G, 8 h, repressible) was 50 µM and 47 µM, the “fold repression of PtyrP” value (R10F TyrR; independent of the presence of Phe, listed as Tyr) was ~12 fold and 15 fold and the Fmax (R10F TyrR; [4]) was 3210. For the same molecule, the Fmin (R10F TyrR; [4]) was 279, the “n (Hill coefficient)” value (R10F TyrR; [4]) was 2.3 and the “fold repression of PtyrP” value (wild-type TyrR; overexpression of wild-type TyrR) was 59 fold. The Fmax (wild-type TyrR; [5]) was 2470, the Fmin (wild-type TyrR; [5]) was 38.1 and the “n (Hill coefficient)” value (wild-type TyrR; [5]) was 1.9. For the same molecule, the EC50 (wild-type TyrR; wild-type TyrR, pAGR010, FIG. 1C, 8 h, read-out: KA (half maximal constant)) was 26 µM and the “response of PtyrP” value (E274Q+T14V TyrR) was “lack of response; also recorded: no apparent response”.

In the case of `O=C(O)Cc1ccc(O)c(O)c1` [DOPAC, 3,4-dihydroxyphenylacetic acid], the “response of the sensors” value [1] is reported as “No sensors significantly responded”.

In the case of `O=C(O)Cc1c[nH]c2ccccc12` [IAA, indole-3-acetic acid], the “response of the sensors” value [1] is reported as “No sensors significantly responded”.

B1: Leucine (L): FeaR variant with leucine in the 81st position, paired with wild-type TynA (protein, UniProt Q47129 1-301, looked up, variant A81L)
Transcriptional activator FeaR: MNPAVDNEFQQWLSQINQVCGNFTGRLLTERYTGVLDTHFAKGLKLSTVTTSGVNLSRTWQEVKGSDDAWFYTVFQLSGQLIMEQDERQVQIGAGDITLLDASRPCSLYWQESSKQISLLLPRTLLEQYFPHQKPICAERLDADLPMVQLSHRLLQESMNNPALSETESEAALQAMVCLLRPVLHQRESVQPRRERQFQKVVTLIDDNIREEILRPEWIAGETGMSVRSLYRMFADKGLVVAQYIRNRRLDFCADAIRHAADDEKLAGIGFHWGFSDQSHFSTVFKQRFGMTPGEYRRKFR
For B1, the Phenotype (PtynA) was “PEA specific” and the Selectivity (PtynA) was “PEA only”.

B2: Phenylalanine (F): FeaR variant with phenylalanine in the 81st position, paired with wild-type TynA (protein, UniProt Q47129 1-301, looked up, variant A81F)
Transcriptional activator FeaR: B1 Transcriptional activator FeaR with L81F
With B2 the Phenotype (PtynA) was “No activity” and the Selectivity (PtynA) was “No activity”.

B3: Glutamine (Q): FeaR variant with glutamine in the 81st position, paired with wild-type TynA (protein, UniProt Q47129 1-301, looked up, variant A81Q)
Transcriptional activator FeaR: B1 Transcriptional activator FeaR with L81Q
In the case of B3, the Phenotype (PtynA) is reported as “No activity” and the Selectivity (PtynA) is reported as “No activity”.
